Here are results for 1 molecule from article PMC6576746, “Rational discovery of dual-indication multi-target PDE/Kinase inhibitor for precision anti-cancer therapy using structural systems pharmacology” (PLoS Computational Biology, 2019).

What all share (experiment): biochemical
Set-up in all cases: DiscoverX KinomeScan competition binding assay across human kinases; per cent of control at 10 and 100 uM

For one assay, the target named is CASK (Homo sapiens, UniProt O14936). To be noted: competition binding, % of control; read-out: Percent Control (100 uM Levosimendan). The procedure, abridged: (§1)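 KinomeScan competition binding was run across a human kinase panel at 10 μM and 100 μM levosimendan. Results are %control = (test − positive control)/(negative control − positive control) × 100.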
In a further assay the target is PKMYT1 (Homo sapiens, UniProt Q99640). To be noted: competition binding, % of control; read-out: Percent Control (100 uM Levosimendan). The procedure, abridged: as §1
The target of a further assay is ACVRL1 (Homo sapiens, UniProt P37023). To be noted: competition binding, % of control. The procedure, abridged: as §1
Another assay addresses PIK3CA(I800L) (Homo sapiens, UniProt P42336, I800L). To be noted: competition binding, % of control; read-out: Percent Control (100 uM Levosimendan). The procedure, abridged: as §1
Another assay addresses T1, MST3 (Homo sapiens, UniProt Q9Y6E0).
T1 construct: gene STK24
To be noted: competition binding, % of control; read-out: Percent Control (100 uM Levosimendan). In short, it runs like this: as §1

The target in another assay is VRK2 (Homo sapiens, UniProt Q86Y07). To be noted: competition binding, % of control; read-out: Percent Control (100 uM Levosimendan). The procedure, abridged:
as §1

The target of another assay is T2, PIP5K2C (Homo sapiens, UniProt Q8TBX8).
T2 construct: gene PIP4K2C
To be noted: competition binding, % of control. In short, it runs like this: as §1

Another assay concerns the target T3, FAK (Homo sapiens, UniProt Q05397).
T3 construct: gene PTK2
To be noted: competition binding, % of control; read-out: Percent Control (100 uM Levosimendan). The procedure, abridged:
as §1

A further assay concerns the target PRKG1 (Homo sapiens, UniProt Q13976). To be noted: competition binding, % of control; read-out: Percent Control (100 uM Levosimendan). The procedure, abridged: as §1
In a further assay the target is GSK3A (Homo sapiens, UniProt P49840). To be noted: competition binding, % of control; read-out: Percent Control (100 uM Levosimendan). In short, it runs like this:
as §1

In another assay the target is T4, DMPK2 (Homo sapiens, UniProt Q6DT37).
T4 construct: gene CDC42BPG
To be noted: competition binding, % of control; read-out: Percent Control (100 uM Levosimendan). In short, it runs like this: as §1

The next assay has as its target AURKA (Homo sapiens, UniProt O14965). To be noted: competition binding, % of control; read-out: Percent Control (100 uM Levosimendan). In short, it runs like this:
as §1

For the next assay, the target named is GRK7 (Homo sapiens, UniProt Q8WTQ7). To be noted: competition binding, % of control; read-out: Percent Control (100 uM Levosimendan). In short, it runs like this:
as §1

In the next assay the target is T5, ASK1 (Homo sapiens, UniProt Q99683).
T5 construct: gene MAP3K5
To be noted: competition binding, % of control; read-out: Percent Control (100 uM Levosimendan). The procedure, abridged:
as §1

Another assay deals with MAST1 (Homo sapiens, UniProt Q9Y2H9). To be noted: competition binding, % of control; read-out: Percent Control (100 uM Levosimendan). In short, it runs like this: as §1
The target of a further assay is DAPK1 (Homo sapiens, UniProt P53355). To be noted: competition binding, % of control; read-out: Percent Control (100 uM Levosimendan). In short, it runs like this:
as §1

The target of a further assay is T6, CDK11 (Homo sapiens, UniProt Q9BWU1).
T6 construct: gene CDK19
To be noted: competition binding, % of control; read-out: Percent Control (100 uM Levosimendan). In short, it runs like this:
as §1

The target in a further assay is T7, PCTK2 (Homo sapiens, UniProt Q00537).
T7 construct: gene CDK17
To be noted: competition binding, % of control; read-out: Percent Control (100 uM Levosimendan). The procedure, abridged:
as §1

The next assay has as its target PIM2 (Homo sapiens, UniProt Q9P1W9). To be noted: competition binding, % of control. The procedure, abridged:
as §1

Setting [1] is: read-out: Percent Control (10 uM Levosimendan).
Setting [2] is: read-out: Percent Control (100 uM Levosimendan).

The structures appear in SMILES notation.

Sequence of ACVRL1 (P37023 whole entry): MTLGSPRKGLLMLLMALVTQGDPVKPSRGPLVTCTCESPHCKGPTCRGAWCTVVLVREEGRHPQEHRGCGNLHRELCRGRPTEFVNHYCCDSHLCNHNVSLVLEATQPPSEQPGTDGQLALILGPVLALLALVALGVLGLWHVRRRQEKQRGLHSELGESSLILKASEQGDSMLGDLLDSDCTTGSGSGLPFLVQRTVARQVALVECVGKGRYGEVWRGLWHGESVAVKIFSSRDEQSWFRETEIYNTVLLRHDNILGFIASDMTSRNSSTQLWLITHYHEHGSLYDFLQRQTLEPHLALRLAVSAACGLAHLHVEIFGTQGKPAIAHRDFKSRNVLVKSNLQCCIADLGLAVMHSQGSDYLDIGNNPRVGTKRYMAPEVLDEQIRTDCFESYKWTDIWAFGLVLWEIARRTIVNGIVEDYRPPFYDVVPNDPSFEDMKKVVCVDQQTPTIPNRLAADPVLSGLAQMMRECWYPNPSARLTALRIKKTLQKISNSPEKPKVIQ
T2 sequence (Q8TBX8 whole entry): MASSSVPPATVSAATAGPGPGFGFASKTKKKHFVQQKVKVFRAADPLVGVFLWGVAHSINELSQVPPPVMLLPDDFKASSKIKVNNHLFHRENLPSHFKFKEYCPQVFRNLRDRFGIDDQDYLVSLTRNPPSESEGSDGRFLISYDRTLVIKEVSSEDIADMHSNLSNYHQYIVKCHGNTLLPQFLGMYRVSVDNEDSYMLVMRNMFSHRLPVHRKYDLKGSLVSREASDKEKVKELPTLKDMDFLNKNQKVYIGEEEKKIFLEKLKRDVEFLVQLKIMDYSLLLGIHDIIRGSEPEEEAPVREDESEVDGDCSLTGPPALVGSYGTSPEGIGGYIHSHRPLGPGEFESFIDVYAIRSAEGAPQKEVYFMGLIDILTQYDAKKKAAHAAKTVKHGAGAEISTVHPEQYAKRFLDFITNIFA
Sequence of PIM2 (Q9P1W9 whole entry): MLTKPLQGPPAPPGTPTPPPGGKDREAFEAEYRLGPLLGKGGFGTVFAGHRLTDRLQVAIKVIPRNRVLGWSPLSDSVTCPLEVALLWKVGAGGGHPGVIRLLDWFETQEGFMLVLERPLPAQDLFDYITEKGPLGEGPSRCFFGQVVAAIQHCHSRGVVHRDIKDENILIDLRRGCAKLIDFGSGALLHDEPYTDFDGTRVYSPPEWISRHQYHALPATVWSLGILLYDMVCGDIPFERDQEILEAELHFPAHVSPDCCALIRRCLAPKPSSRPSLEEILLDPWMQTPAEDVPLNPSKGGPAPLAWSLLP
Sequence of GRK7 (Q8WTQ7 whole entry): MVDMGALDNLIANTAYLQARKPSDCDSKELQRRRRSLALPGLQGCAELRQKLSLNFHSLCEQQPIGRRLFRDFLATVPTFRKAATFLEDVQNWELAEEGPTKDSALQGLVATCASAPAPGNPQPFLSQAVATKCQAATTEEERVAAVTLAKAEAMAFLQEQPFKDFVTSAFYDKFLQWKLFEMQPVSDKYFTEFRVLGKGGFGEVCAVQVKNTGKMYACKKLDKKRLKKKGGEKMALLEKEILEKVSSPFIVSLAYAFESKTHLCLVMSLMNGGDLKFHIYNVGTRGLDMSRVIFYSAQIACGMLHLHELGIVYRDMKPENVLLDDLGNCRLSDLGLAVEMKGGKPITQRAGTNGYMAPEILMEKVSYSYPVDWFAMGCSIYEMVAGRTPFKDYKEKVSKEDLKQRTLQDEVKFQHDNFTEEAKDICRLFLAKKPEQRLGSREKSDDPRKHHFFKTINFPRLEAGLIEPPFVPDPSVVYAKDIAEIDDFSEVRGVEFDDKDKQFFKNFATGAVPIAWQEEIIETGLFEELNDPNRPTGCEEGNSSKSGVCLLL
Sequence of VRK2 (Q86Y07 whole entry): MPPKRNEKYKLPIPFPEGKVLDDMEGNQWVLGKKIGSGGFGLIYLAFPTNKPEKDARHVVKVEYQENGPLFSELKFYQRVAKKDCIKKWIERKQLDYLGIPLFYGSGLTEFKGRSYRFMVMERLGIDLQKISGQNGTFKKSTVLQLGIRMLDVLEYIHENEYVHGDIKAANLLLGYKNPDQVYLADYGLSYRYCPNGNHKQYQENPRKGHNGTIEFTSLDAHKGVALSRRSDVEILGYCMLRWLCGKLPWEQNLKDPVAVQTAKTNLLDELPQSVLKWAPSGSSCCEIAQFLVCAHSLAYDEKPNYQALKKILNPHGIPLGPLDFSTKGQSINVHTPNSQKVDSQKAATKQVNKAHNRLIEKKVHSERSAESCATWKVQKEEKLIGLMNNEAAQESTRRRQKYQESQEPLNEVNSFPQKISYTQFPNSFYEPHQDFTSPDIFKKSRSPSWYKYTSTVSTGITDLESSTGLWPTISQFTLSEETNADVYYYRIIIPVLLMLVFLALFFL
Sequence of CASK (O14936 whole entry): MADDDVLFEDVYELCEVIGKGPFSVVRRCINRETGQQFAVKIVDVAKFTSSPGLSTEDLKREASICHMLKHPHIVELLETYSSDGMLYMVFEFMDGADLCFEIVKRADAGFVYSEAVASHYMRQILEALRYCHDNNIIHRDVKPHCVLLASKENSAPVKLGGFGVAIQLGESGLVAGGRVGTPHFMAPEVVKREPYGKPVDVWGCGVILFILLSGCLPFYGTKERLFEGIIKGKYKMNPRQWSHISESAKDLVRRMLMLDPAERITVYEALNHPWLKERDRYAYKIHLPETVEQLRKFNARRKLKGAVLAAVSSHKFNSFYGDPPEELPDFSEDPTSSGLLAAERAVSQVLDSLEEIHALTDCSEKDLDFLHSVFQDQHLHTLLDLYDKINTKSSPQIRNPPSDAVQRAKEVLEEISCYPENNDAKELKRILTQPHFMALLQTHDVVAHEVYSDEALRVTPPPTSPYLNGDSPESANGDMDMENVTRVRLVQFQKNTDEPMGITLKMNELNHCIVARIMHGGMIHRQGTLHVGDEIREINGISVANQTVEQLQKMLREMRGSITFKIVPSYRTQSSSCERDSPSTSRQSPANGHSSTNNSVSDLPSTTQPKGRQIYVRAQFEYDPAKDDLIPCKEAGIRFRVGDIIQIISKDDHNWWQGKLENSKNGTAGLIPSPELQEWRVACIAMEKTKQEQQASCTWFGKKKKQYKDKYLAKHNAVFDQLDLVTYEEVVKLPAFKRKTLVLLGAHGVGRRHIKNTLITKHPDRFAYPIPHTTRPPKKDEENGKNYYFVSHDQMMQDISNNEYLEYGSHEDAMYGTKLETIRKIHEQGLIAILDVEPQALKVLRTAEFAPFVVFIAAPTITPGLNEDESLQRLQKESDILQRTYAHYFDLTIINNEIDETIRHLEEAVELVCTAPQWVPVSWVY
T4 sequence (Q6DT37 whole entry): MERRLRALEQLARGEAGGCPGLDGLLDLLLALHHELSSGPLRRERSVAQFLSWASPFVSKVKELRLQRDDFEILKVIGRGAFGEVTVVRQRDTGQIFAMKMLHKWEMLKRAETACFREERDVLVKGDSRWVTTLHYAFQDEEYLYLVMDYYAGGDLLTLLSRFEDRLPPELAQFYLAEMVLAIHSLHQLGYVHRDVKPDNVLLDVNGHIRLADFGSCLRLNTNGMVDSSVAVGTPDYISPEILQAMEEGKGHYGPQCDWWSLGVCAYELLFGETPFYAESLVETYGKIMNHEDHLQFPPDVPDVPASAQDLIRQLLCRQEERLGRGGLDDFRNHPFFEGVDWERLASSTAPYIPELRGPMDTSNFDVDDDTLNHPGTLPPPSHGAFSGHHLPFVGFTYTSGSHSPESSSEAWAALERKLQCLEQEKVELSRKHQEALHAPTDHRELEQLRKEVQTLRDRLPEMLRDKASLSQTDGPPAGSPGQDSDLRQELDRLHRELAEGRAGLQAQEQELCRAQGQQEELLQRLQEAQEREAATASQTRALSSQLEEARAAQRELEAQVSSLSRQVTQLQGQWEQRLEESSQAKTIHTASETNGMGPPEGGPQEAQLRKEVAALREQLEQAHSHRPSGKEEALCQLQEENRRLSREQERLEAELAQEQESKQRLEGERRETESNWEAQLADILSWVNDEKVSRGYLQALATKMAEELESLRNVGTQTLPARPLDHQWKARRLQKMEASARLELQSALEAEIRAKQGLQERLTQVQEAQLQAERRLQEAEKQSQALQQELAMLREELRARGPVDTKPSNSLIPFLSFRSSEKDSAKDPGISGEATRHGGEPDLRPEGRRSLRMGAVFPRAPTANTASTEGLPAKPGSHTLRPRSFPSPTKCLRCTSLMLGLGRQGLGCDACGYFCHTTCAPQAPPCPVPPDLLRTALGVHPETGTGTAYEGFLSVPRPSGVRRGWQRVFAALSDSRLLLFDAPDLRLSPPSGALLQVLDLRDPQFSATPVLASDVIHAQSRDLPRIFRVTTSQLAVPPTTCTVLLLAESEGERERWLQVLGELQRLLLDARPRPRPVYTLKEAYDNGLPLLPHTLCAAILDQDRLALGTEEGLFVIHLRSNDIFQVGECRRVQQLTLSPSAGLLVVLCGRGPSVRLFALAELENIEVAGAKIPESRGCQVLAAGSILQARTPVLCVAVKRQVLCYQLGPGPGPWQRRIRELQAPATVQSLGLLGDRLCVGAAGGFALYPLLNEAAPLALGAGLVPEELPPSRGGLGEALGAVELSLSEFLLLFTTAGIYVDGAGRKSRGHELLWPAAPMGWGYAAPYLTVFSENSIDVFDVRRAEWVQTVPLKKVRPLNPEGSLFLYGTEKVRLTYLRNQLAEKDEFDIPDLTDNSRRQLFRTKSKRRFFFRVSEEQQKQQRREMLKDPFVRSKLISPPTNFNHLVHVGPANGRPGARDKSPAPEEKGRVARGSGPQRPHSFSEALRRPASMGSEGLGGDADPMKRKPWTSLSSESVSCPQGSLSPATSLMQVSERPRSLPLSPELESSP

With `C[C@@H]1CC(=O)NN=C1c1ccc(NN=C(C#N)C#N)cc1` [levosimendan], the remaining binding at 100 µM on CASK came to 88%; at PKMYT1, 57%; on ACVRL1 (setting [2]), 30%; on PIK3CA(I800L) it was 83%; on MST3, 96%; on VRK2 it was 69%. For the same molecule, the remaining binding at 100 µM on PIP5K2C (setting [2]) came to 5.9%; at FAK, 89%; at PRKG1, 64%; on GSK3A, 100%; at DMPK2 it was 70%; at AURKA, 73%. The remaining binding at 100 µM was found to be 100% at GRK7; 100% at ASK1; 100% on MAST1; 88% at DAPK1; 100% on CDK11; 100% on PCTK2. Besides, the remaining binding at 100 µM at PIM2 (setting [2]) stood at 20%. The figures for the remaining binding at 10 µM at ACVRL1 (setting [1]), at PIP5K2C (setting [1]) and at PIM2 (setting [1]) were 71%, 52% and 84%, respectively.
